# According to article PMC3625477 (Journal of acquired immune deficiency syndromes (1999), 2013):
# Where “and” joins values, the source holds several entries; their conditions need not be identical. Equal values may be shown once. Read-outs that look alike come from different tables or passages of the source.
# Tests used:
# [1] = Total; type: in vivo, HIV-infected pregnant women; details: for concentration at 12 h / AUC(0-t) / Cmax: plasma; for concentration at 12 h: oral, C12h; for AUC(0-t) / Cmax: po; for AUC(0-t): AUC0–12h
# [2] = test system: wild type virus (HIV); details: unbound lopinavir; cited from earlier work
# [3] = type: in vivo, HIV-infected pregnant women; details: for concentration at 12 h / AUC(0-t) / Cmax: female, human, plasma; for concentration at 12 h: oral, C12h; for concentration at 12 h / AUC(0-t) / Cmax / C12h / Cl: protein unbound, median; for AUC(0-t) / Cmax: po; for AUC(0-t): AUC0–12h
# [4] = test system: wild-type virus; details: total lopinavir; cited from earlier work
# [5] = test system: blood plasma proteins albumin and alpha-1-acid-glycoprotein (AAG); details: cited from earlier work
# [6] = 8 wks postpartum (PK4), LPV/RTV 400mg/100mg twice daily
# [7] = 20–24 wks (PK1), LPV/RTV 400mg/100mg twice daily
# [8] = 30 wks (PK2), LPV/RTV 400mg/100mg twice daily
# [9] = 32 wks (PK3), LPV/RTV 500mg/125mg twice daily
# [10] = female, human, total (bound + unbound), 8 wks postpartum (PK4), LPV/RTV 400mg/100mg twice daily, median
# [11] = female, human, total (bound + unbound), 20–24 wks (PK1), LPV/RTV 400mg/100mg twice daily, median
# [12] = female, human, total (bound + unbound), 30 wks (PK2), LPV/RTV 400mg/100mg twice daily, median
# [13] = female, human, total (bound + unbound), 32 wks (PK3), LPV/RTV 500mg/125mg twice daily, median
# [14] = total (bound + unbound), 8 wks postpartum (PK4), LPV/RTV 400mg/100mg twice daily, median
# [15] = total (bound + unbound), 20–24 wks (PK1), LPV/RTV 400mg/100mg twice daily, median
# [16] = total (bound + unbound), 30 wks (PK2), LPV/RTV 400mg/100mg twice daily, median
# [17] = total (bound + unbound), 32 wks (PK3), LPV/RTV 500mg/125mg twice daily, median
smiles,measurement,setting,value
"Cc1cccc(C)c1OCC(=O)N[C@@H](Cc1ccccc1)[C@@H](O)C[C@H](Cc1ccccc1)NC(=O)[C@H](C(C)C)N1CCCNC1=O [Lopinavir, lopinavir]",postpartum total C12h higher than at any point during pregnancy,"[1]; female, human, in vivo, 12 h",38–80%
same,women with total lopinavir C12h below 4 µg/mL,"[1]; second trimester, standard-dose LPV/RTV, 12 participants",33%
same,protein-unbound IC50 (50% inhibitory concentration),[2],0.64 ng/mL and 0.64 to 0.77 ng/mL
same,increase in protein-unbound AUC0–12h with the increased dose,[3]; PK2 vs PK3,< 15%
same,share of all unbound concentrations below the wild type IC50 of 0.00064 µg/mL,[3]; all visits,Less than 2%
same,concentration at 12 h,[3]; [6],160 ng/mL
same,concentration at 12 h,[3]; [7],150 ng/mL
same,concentration at 12 h,[3]; [8],100 ng/mL
same,concentration at 12 h,[3]; [9],120 ng/mL
same,AUC(0-t),[3]; [6],2600 ng·h/mL
same,AUC(0-t),[3]; [7],1600 ng·h/mL
same,AUC(0-t),[3]; [8],1600 ng·h/mL
same,AUC(0-t),[3]; [9],1800 ng·h/mL
same,Cmax,[3]; [6],280 ng/mL
same,Cmax,[3]; [7],180 ng/mL
same,Cmax,[3]; [8],210 ng/mL
same,Cmax,[3]; [9],240 ng/mL
same,C12h,[3]; [6],160 ng/mL
same,Cl,[3]; [6],92 L/h
same,C12h,[3]; [7],150 ng/mL
same,Cl,[3]; [7],123 L/h
same,C12h,[3]; [8],100 ng/mL
same,Cl,[3]; [8],155 L/h
same,C12h,[3]; [9],120 ng/mL
same,Cl,[3]; [9],131 L/h
same,minimum effective concentration,[4],1 µg/mL
"CC(C)c1nc(CN(C)C(=O)N[C@H](C(=O)N[C@@H](Cc2ccccc2)C[C@H](O)[C@H](Cc2ccccc2)NC(=O)OCc2cncs2)C(C)C)cs1 [Ritonavir, ritonavir]",concentration at 12 h,[1]; [10],280 ng/mL
same,concentration at 12 h,[1]; [11],120 ng/mL
same,concentration at 12 h,[1]; [12],120 ng/mL
same,concentration at 12 h,[1]; [13],150 ng/mL
same,AUC(0-t),[1]; [11],2500 ng·h/mL
same,AUC(0-t),[1]; [12],2300 ng·h/mL
same,AUC(0-t),[1]; [13],2400 ng·h/mL
same,Cmax,[1]; [10],620 ng/mL
same,Cmax,[1]; [11],350 ng/mL
same,Cmax,[1]; [12],300 ng/mL
same,Cmax,[1]; [13],360 ng/mL
same,AUC0–12h,[1]; [14],5200 ng·h/mL
same,C12h,[1]; [14],280 ng/mL
same,Cl (apparent oral clearance),[1]; [14],12 L/h
same,C12h,[1]; [15],120 ng/mL
same,Cl (apparent oral clearance),[1]; [15],29 L/h
same,C12h,[1]; [16],120 ng/mL
same,Cl (apparent oral clearance),[1]; [16],33 L/h
same,C12h,[1]; [17],150 ng/mL
same,Cl (apparent oral clearance),[1]; [17],37 L/h
same,bound to the blood plasma proteins,[5],98–99%
same,concentration at 12 h,[3]; [6],30 ng/mL
same,concentration at 12 h,[3]; [7],20 ng/mL
same,concentration at 12 h,[3]; [8],20 ng/mL
same,concentration at 12 h,[3]; [9],20 ng/mL
same,AUC(0-t),[3]; [6],500 ng·h/mL
same,AUC(0-t),[3]; [7],400 ng·h/mL
same,AUC(0-t),[3]; [9],300 ng·h/mL
same,Cmax,[3]; [6],80 ng/mL
same,Cmax,[3]; [7],60 ng/mL
same,Cmax,[3]; [8],50 ng/mL
same,Cmax,[3]; [9],50 ng/mL
same,Cl,[3]; [6],127 L/h
same,Cl,[3]; [7],169 L/h
same,Cl,[3]; [8],261 L/h
same,Cl,[3]; [9],306 L/h
